Test results reported in patent publication US4863949A, “Aminopropanol derivatives, processes for the preparation thereof, the use thereof and pharmaceutical compositions containing them” (Boehringer Mannheim GmbH, priority 1985, dated 1989).
Structures can show the parent of a compound that is named as a salt.

system: livers; assay: denitration rate in perfused rat livers relative to isosorbide-5-mononitrate (nitrate-like action); set-up: species or system rats; conditions: rat livers perfused 4 min, equimolar 5×10^-5 M/l; freed NO2 in perfusate; high = fast denitration

| SMILES | Vrel (denitration rate in relation to isosorbide-5-mononitrate) |
| --- | --- |
| O=C(CCCO[N+](=O)[O-])NCCNCC(O)COc1cccc2[nH]ccc12 (stereo not shown) [2 (11.), 1-indol-4-yloxy)-3-[2-(4-nitroxybutanoylamino)-ethylamino]-propan-2-ol hemifumarate] | 0,95 |
| O=C(CCCO[N+](=O)[O-])NCCNCC(O)COc1cccc2c1CC(=O)N2.O=C(O)/C=C/C(=O)O (stereo not shown) [2 (17.), 3-[2-(4-nitroxybutanoylamino)-ethylamino]-1-(2-oxoindolin-4-yloxy)-propan-2-ol fumarate] | 0,75 |
| CC(CCC(=O)NCCNCC(O)COc1cccc2c1CC(=O)N2)O[N+](=O)[O-] (stereo not shown) [2 (29.), 3-[2-(4-nitroxypentanoylamino)-ethylamino]-1-(2-oxoindolin-4-yloxy)-propan-2-ol cyclamate] | 0,86 |
| O=C(CCCCO[N+](=O)[O-])NCCNCC(O)COc1cccc2c1CC(=O)N2 (stereo not shown) [2 (31.), 3-[2-(5-nitroxypentanoylamino)-ethylamino]-1-(2-oxoindolin-4-yloxy)-propan-2-ol hemifumarate] | 0,66 |
| Cc1ccc(Cl)c(OCC(O)CNC(C)(C)CNC(=O)CCCO[N+](=O)[O-])c1 (stereo not shown) [2 (46.), 1-(2-chloro-5-methylphenoxy)-3-[1,1-dimethyl-2-(4-nitroxybutanoylamino)-ethylamino]-propan-2-ol cyclamate] | 0,97 |
| CC(C)(CNC(=O)CCCO[N+](=O)[O-])NCC(O)COc1ccccc1C#N.O=C(O)/C=C/C(=O)O (stereo not shown) [2 (48.), 1-(2-cyanophenoxy)-3-[1,1-dimethyl-2-(4-nitroxybutanoylamino)-ethylamino]-propan-2-ol fumarate] | 0,94 |
| C=CCc1ccccc1OCC(O)CNC(C)(C)CNC(=O)CCCO[N+](=O)[O-] (stereo not shown) [2 (72.), 1-(2-allylphenoxy)-3-[1,1-dimethyl-2-(4-nitroxybutanoylamino)-ethylamino]-propan-2-ol cyclamate] | 0,54 |
| CC(=O)Oc1c(C)cc(OCC(O)CNC(C)(C)CNC(=O)CCCO[N+](=O)[O-])c(C)c1C.O=C(O)/C=C/C(=O)O (stereo not shown) [8 (15.), 3-[1,1-dimethyl-2-(4-nitroxybutanoylamino)-ethylamino]-1-(4-methylcarbonyloxy-2,3,5-trimethylphenoxy)-propan-2-ol fumarate] | 1,19 |
| Cn1cnc2cccc(OCC(O)CNC(C)(C)CNC(=O)O[C@H]3CO[C@H]4[C@@H]3OC[C@H]4O[N+](=O)[O-])c21 (stereo partly shown) [Example 11, 3-[1,1-Dimethyl-2-[(5-O-nitroisosorbid-2-yloxy)-carbonylamino]-ethylamino]-1-(3-methylbenzimidazol-4-yloxy)-propan-2-ol fumarate] | 1,23 |
| O=[N+]([O-])O[C@@H]1CO[C@H]2[C@@H]1OC[C@@H]2O [Isosorbide-5-mononitrate, isosorbide-5-mononitrate, reference compound] | 0,86 |
